“Also recorded” adds a separate entry of the source.
What was measured:
[1] = Hydroxyl radical scavenging: DMPO-HO. adduct formation (H2O2 + UV) measured by HPLC-EC; format: biochemical
From the text: The hydroxyl radical (HO^.cndot.) is the most reactive and cytotoxic species among free radicals. […] Because of its high reactivity, HO^.cndot. once formed either in vitro or in vivo lasts for a very short time (half life about 10^-9 s) and, therefore, HO^.cndot. cannot be measured directly. However, by using a spin trapping agent, in this case 5,5-dimethylpyrroline-N-oxide (DMPO), an adduct (DMPO-HO^.cndot.) is formed between the spin trapping agent and the HO^.cndot.. The adducts have a longer half life and therefore they can be more readily quantified.
When DMPO is incubated in this system the DMPO will traps the HO^.cndot. to form a relatively stable DMPO- HO^.cndot. adduct.
HO^.cndot. +DMPO→DMPO-HO^.cndot.
In the present study, the DMPO-HO^.cndot. adduct was detected by an electro-chemical (EC) detector attached to a high performance liquid chromatography (HPLC) system. […] The applied potential was 1.0 volt and volume of the injected sample was 20 μl.

[2] = tested on: brain lipid proxidation (MDA+4-HDA) in cerebral cortex; assay: Brain oxidative damage test: lipid peroxidation product (LPO; MDA+4-HDA) in cerebral cortex of KA-treated mice; format: in vivo, mice (male CD2-FI); details: for level of LPO in brain (in words): KA 40 mg/kg s.c. plus compound I or melatonin 5 mg/kg i.p., 48 h, FIG. 5
Experimental: (§1) Kainic acid (KA) was employed to test the in vivo free radical scavenging and antioxidant activities of compound I. KA is an excitatory neurotoxin which destroys neuronal cells by free radical generation (Coyle and Schwarcz, Nature 263: 244-246 1976). Male CD2-FI mice (26-30 g) were chosen as the experimental subject. The mice were housed in windowless room with automatically regulated temperature 22±2° C. and 14 h light/10 h dark cycle. The mice received standard laboratory chow and water ad libitum. The mice were randomized into 4 groups.
Forty-eight hours after treatment, 5 mice of each group were sacrificed and the cerebral cortex was excised and immediately placed on dry ice and stored at -80° C. for the lipid prooxidation product (LPO) assay. LPO is the most commonly used index of free radical damage and the assay used to measure the level of LPO is described in a kit avaliable from Calbiochem (LA Jolla, Calif.). LPO was expressed as malondialdehyde (MDA) and 4-hydroxyalkenals (4-HDA)/mg protein. The level of LPO in the cerebral cortex of mice in the control group was 3.47=0.18 nmol/mg protein; in KA injected mice the level of LPO was increased to 4.42=0.11 nmol/mg protein. This increase, when compared to the control mice, was great than 27% (p<0.05).

[3] = tested on: pyramidal neurons in the hippocampal CA3 area; assay: Morphological observations of hippocampus of KA-treated mice (light microscopy); format: in vivo, mice (male CD2-FI); details: seven days following treatment; KA 40 mg/kg s.c. with or without 5 mg/kg compound I or melatonin; hematoxylin and eosin
Experimental: as §1
Seven days following the treatment, representive mice in each of the groups mentioned above were sacrificed. The brains were immersed in normal fixation buffer. The hippocampi and surrounding tissue were dissected from the whole brain, cut and stained with hematoxylin and eosin. The morphological assessment of neuronal damage was determined by using light microscopy. In the brains of control mice no visible neuronal damage was observed. […] The induced neuronal damage was concentrated in the hippocampal CA3 area. The total histological architecture of CA3 area was altered. Virtually all of the pyrimadal neurons in this area were destroyed. The cell membranes appeared to have disintegrated and the nuclei of the cells were condensed and pyknotic. These changes are consistent with cell death. […] Few damaged neurons were observed microcopically in this area in these two groups (FIG. 6).

[4] = tested on: KA-induced neurobehavioral activities and death in mice; assay: Neurobehavioral activities and death induced by kainic acid in mice; format: in vivo, mice (male CD2-FI); details: for Incidence, Seizures / Incidence, Tail arch / Incidence, Tremors / Incidence, Death (death rate): KA 40 mg/kg s.c., compound I or melatonin 5 mg/kg i.p. 10 min before KA, n=15; for Incidence, Seizures / Incidence, Tail arch / Incidence, Tremors: 4 h observation
Experimental: as §1
Immediately following the injections, neurobehavioral changes were monitored. The observation period extended for 4 hours following the injections. The death rate at 48 hours was recorded. […] By contrast, all of the mice that received KA developed some neurobehavioral changes including arching of tail, tremors and seizures. The death rate in this group was 33%. […] Tremors and seizures decreased from 100% in the KA-treated mice to 40% (p=0.001), respectively,and the death rate was reduced to 20%.

[5] = tested on: experimental animal life span; details: Pierpaoli and Regelson, Proc. Natl. Acad. Sci. USA 91: 787-791 1994; up to; cited from earlier work
[6] = background statement; cited from earlier work

Row | SMILES | suppression of DMPO-HO. adduct formation (in words) ([1]; compared with melatonin, FIG. 3, dose-response, FIG. 4) | IC50 ([1]; read-out: IC50 (concentration required to produce 50% inhibition of the DMPO-HO. formation), H2O2 + UV (254 nm), DMPO spin trap, HPLC-EC) [µM] | level of LPO in brain (in words) [2] | morphological assessment of neuronal damage, hippocampal CA3 area [3] | Incidence, Seizures [4] [%] | Incidence, Tail arch [4] [%] | Incidence, Tremors [4] [%] | Death (in words) ([4]; at 48 hours, KA 40 mg/kg s.c. plus compound I 5 mg/kg i.p.) | Incidence, Death (death rate) ([4]; at 48 hours) [%] | increase of LPO level compared to control mice ([2]; 48 h after KA 40 mg/kg s.c., p<0.05) [%] | prolongation of experimental animal life span [5] | biological half life in the blood [6]
1 | COc1cc2[nH]cc(CCNC(C)=O)c2cc1OC [Compound I, N-acetyl-5,6-dimethoxytryptamine] | efficacy is greater than that of melatonin | 15 | reduced to control levels | No obviously neuronal damage is observed; also recorded: the hippocampal CA3 area of the brain was still intact | 20 | 40 | 40 | none of them died | 0 |  |  | 
2 | C=C(C)[C@H]1CN[C@H](C(=O)O)[C@H]1CC(=O)O [KA] |  |  |  | The morphological architecture of neurons in the hippocampal CA3 region were destroyed; also recorded: the pyramidal neurons of the hippocampus were severely damaged | 100 | 86 | 100 |  | 33 | > 27 |  | 
3 | COc1ccc2[nH]cc(CCNC(C)=O)c2c1 [melatonin] |  |  | reduced to control levels | No obviously neuronal damage is observed; also recorded: the hippocampal CA3 area of the brain was still intact | 40 | 33 | 40 |  | 20 |  | up to 27% | 20-40 min
